Measurements reported in ChEMBL document CHEMBL1781945, “A new series of 3-phenylcoumarins as potent and selective MAO-B inhibitors” (Bioorg Med Chem Lett, 2009).

Experiments:
[1] = target: T1, Amine oxidase [flavin-containing] A (Homo sapiens, UniProt P21397); assay: Inhibition of human recombinant MAOA expressed in BTI insect cells at 100 uM using p-tyramine substrate by fluorometric method
T1 sequence (P21397 whole entry): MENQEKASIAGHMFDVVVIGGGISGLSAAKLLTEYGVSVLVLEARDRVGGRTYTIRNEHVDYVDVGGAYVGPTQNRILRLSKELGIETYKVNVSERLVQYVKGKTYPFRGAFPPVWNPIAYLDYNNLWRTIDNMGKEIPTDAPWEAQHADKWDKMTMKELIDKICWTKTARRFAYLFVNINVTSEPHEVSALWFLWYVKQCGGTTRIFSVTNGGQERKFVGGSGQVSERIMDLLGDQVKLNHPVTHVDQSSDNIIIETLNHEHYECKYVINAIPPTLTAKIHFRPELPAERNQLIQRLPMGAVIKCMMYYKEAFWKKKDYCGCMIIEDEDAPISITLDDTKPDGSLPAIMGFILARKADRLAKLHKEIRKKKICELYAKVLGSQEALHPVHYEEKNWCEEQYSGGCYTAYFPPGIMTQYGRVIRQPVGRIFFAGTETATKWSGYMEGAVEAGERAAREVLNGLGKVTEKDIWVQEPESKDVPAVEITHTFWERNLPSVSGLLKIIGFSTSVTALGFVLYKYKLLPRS

[2] = target: T2, Amine oxidase [flavin-containing] B (Homo sapiens, UniProt P27338); assay: Inhibition of human recombinant MAOB expressed in BTI insect cells using p-tyramine substrate by fluorometric method
T2 sequence (P27338 whole entry): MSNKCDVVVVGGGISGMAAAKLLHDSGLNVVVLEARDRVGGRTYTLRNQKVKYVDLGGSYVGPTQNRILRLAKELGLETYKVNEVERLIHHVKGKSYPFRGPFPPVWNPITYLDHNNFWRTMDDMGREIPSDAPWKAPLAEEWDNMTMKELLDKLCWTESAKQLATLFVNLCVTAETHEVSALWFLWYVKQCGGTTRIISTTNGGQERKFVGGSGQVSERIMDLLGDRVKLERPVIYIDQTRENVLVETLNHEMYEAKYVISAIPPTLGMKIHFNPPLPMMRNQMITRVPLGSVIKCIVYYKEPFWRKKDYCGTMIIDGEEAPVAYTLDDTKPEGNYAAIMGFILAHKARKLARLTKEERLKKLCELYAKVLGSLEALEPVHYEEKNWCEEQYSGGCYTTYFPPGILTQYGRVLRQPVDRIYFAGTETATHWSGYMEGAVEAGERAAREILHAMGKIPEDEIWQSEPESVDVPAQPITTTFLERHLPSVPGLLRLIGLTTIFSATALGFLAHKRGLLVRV

Homo sapiens = species: Homo sapiens; assay: Selectivity index, ratio of IC50 for human recombinant MAOA to IC50 for human recombinant MAOB

Row | SMILES | inhibition (INH) [1] | IC50 [2] | Ratio IC50 (Homo sapiens)
1 | COc1ccc(-c2cc3cc(C)ccc3oc2=O)cc1 | Not Active | 13.1 nM | > 7660
2 | COc1cc(-c2cc3cc(C)ccc3oc2=O)cc(OC)c1OC | Not Active | 161 nM | > 623
3 | Cc1ccc2oc(=O)c(-c3ccccc3)cc2c1 | Not Active | 284 nM | > 352
4 | COc1cc(OC)cc(-c2cc3cc(C)ccc3oc2=O)c1 | Not Active | 8.98 nM | > 11100
